Earlier results on two compounds are cited in patent US6432971B1, “Method of prevention of prostatic carcinoma with 17β-N-monosubstituted-carbamoyl-4-aza-5α-androst-1-en-3-ones” (Merck & Co., Inc., priority 1991, dated 2002).

Data set [1] concerns testosterone-5α-reductase. Particulars: in vitro; Voigt and Hsia, Endocrinology 92, 1216 (1973).
The test system of data set [2] is female hamster flank organ. To be noted: for effect on flank organ response elicited by 5α-dihydrotestosterone: concomitant administration with topical 5α-dihydrotestosterone; for effect on flank organ response elicited by testosterone: concomitant administration with topical testosterone.

For `C[C@]12CC[C@H]3[C@@H](CCC4=CC(=O)CC[C@@]43C)[C@@H]1CC[C@@H]2C(=O)O` [4-androsten-3-one-17β-carboxylic acid], the “inhibition of testosterone-5α-reductase” value in data set [1] is listed as “active inhibitors of testosterone-5α-reductase in vitro”. Besides, in data set [2], the “effect on flank organ response elicited by 5α-dihydrotestosterone” value is “did not inhibit the response elicited by 5α-dihydrotestosterone” and the “effect on flank organ response elicited by testosterone” value is given as “inhibited the response elicited by testosterone”.
With `COC(=O)[C@H]1CC[C@H]2[C@@H]3CCC4=CC(=O)CC[C@]4(C)[C@H]3CC[C@]12C` [methyl 4-androsten-3-one-17β-carboxylate], in data set [1], the “inhibition of testosterone-5α-reductase” value was “active inhibitors of testosterone-5α-reductase in vitro”. Moreover, in data set [2], the “effect on flank organ response elicited by 5α-dihydrotestosterone” value is reported as “did not inhibit the response elicited by 5α-dihydrotestosterone” and the “effect on flank organ response elicited by testosterone” value is recorded as “inhibited the response elicited by testosterone”.
